Source: US10688080B2, “Compositions, methods of use, and methods of treatment” (priority 2016, dated 2020)

Legend:
NDM-1 = target: T1, NDM-1 (Klebsiella pneumoniae, UniProt C7C422); assay: Steady-state kinetic nitrocefin hydrolysis inhibition, NDM-1; assay type: biochemical; settings: for Ki: nitrocefin 10 μM, 1 μM ZnSO4, Ki=IC50/([S]/Km+1)
T1 construct: SUMO tag (cleaved yes); made in house; host or cells: bacteria, IPTG-induced
Protocol: For sumo tag NDM-1 metallo-beta-lactamase, bacteria were grown overnight at 30 C with shaking in 50 mL LB broth supplemented with 100 μg/mL ampicillin. Two liters of LB broth supplemented with 100 μg/mL ampicillin were each inoculated with 10 mL of overnight bacterial culture. Cultures were then grown at 37 C until an optical density at 600 nm (OD600) of 0.6-0.7. Protein expression was then initiated by the addition of IPTG (final concentration 0.5 mM), followed by growth for 16 hr at 20 C. Cells were pelleted by centrifugation and stored at −80 C until further use. The sumo tag NDM-1 beta-lactamase was purified by nickel affinity chromatography and gel filtration. Briefly, the cell pellets were thawed and re-suspended in 40 mL of buffer A (20 mM HEPES pH 7.4, 0.5 M NaCl, 20 mM imidazole) with one complete protease inhibitor cocktail tablet (Roche) and disrupted by sonication, followed by ultracentrifugation to clarify the lysate. After ultracentrifugation, the supernatant was passed through a 0.22 μm filter before loading onto a 5 mL HisTrap HP affinity column (GE Healthcare Life Sciences, USA) pre-equilibrated with buffer A. Sumo tag NDM-1 was eluted by a linear imidazole gradient (20 mM to 500 mM). Fractions were analyzed by SDS-PAGE. Fractions containing sumo tag NDM-1 were buffer exchanged into 20 mM HEPES pH 7.0, 100 mM NaCl. Cleavage of the sumo tag was then carried out with ULP1 protease overnight at room temperature and then concentrated using a 10 k NMWL Amicon Ultra-15 Centrifugal Filter Unit. The sample was then loaded back onto a nickel affinity column and the flow through was collected, containing the untagged NDM-1. NDM-1 was concentrated and loaded onto a gel filtration column (GE Healthcare Life Sciences) pre-equilibrated with 20 mM HEPES pH 7.0, 100 mM NaCl. Protein concentration was determined by absorbance at 280 using an extinction coefficient of 27,960.
(§1) Steady-state kinetic parameters were determined by using a Biotek Cytation 5 Cell Imaging Multi-Mode Reader. For KPC-2 and CTX M-14, each assay was performed in 100 mM Tris-HCl pH 7.0, 0.01% Triton X-100 at 37 C. Vmax and Km were determined from initial steady-state velocities from nitrocefin read at a wavelength of 486 nm. The kinetic parameters were obtained using the non-linear portion of the data to the Henri-Michaelis (equation 1) using Gera version 2.07. V=Vmax[S]/(Km+[S]) (Equation 1)
(§2) IC50, defined as the inhibitor concentration that results in a 50% reduction of nitrocefin (20 μM for KPC-2 and 50 μM for CTX M-14) hydrolysis was determined by measurements of initial velocities after mixing 1 nM of KPC-2 or CTX M-14 with increasing concentrations of inhibitors. The inhibition constant (Ki) was calculated according to equation 2: Ki=IC50/([S]/Km+1) (Equation 2)
For NDM-1, the procedures were the same as above except the assay was performed in 100 mM Tris-HCl pH 7.0, 1 μM ZnSO4, 0.01% Triton X-100. In addition, a nitrocefin concentration of 10 μM was used.

KPC-2 = target: T2, KPC-2 (Klebsiella pneumoniae, UniProt Q9F663); assay: Steady-state kinetic nitrocefin hydrolysis inhibition, KPC-2; assay type: biochemical
T2 construct: made in house; host or cells: bacteria, IPTG-induced
T2 sequence (Q9F663 25-293 limits assumed): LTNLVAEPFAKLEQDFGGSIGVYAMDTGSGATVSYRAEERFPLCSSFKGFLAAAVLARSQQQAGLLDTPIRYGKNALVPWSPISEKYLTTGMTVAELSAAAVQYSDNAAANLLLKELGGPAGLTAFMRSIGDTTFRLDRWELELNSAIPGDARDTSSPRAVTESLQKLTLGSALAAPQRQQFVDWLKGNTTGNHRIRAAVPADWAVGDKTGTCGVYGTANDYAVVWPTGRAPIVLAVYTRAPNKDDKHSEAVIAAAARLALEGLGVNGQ
Protocol: For His tag KPC-2 beta-lactamase, bacteria were grown overnight at 30 C with shaking in 50 mL LB broth supplemented with 50 μg/mL kanamycin. Two liters of LB broth supplemented with 50 μg/mL kanamycin, 200 mM sorbitol, and 5 mM betaine were each inoculated with 10 mL of overnight bacterial culture. Cultures were then grown at 37 C until an optical density at 600 nm (OD600) of 0.6-0.7. Protein expression was then initiated by the addition of IPTG (final concentration 0.5 mM), followed by growth for 16 hr at 20 C. Cells were pelleted by centrifugation and stored at −80 C until further use. The his tag KPC-2 beta-lactamase was purified by nickel affinity chromatography and gel filtration. Briefly, the cell pellets were thawed and re-suspended in 40 mL of buffer A (20 mM Tris-HCl pH 8.0, 300 mM NaCl, 20 mM imidazole) with one complete protease inhibitor cocktail tablet (Roche) and disrupted by sonication, followed by ultracentrifugation to clarify the lysate. After ultracentrifugation, the supernatant was passed through a 0.22 μm filter before loading onto a 5 mL HisTrap HP affinity column (GE Healthcare Life Sciences, USA) pre-equilibrated with buffer A. His tag KPC-2 was eluted by a linear imidazole gradient (20 mM to 500 mM). Fractions were analyzed by SDS-PAGE. Fractions containing his tag KPC-2 were concentrated using a 10 k NMWL Amicon Ultra-15 Centrifugal Filter Unit. Concentrated his tag KPC-2 was then loaded onto a superdex 75 gel filtration column (GE Healthcare Life Sciences) pre-equilibrated with 20 mM Tris-HCl pH 8.0, 300 mM NaCl. Protein concentration was determined by absorbance at 280 using an extinction coefficient of 39,545.
as §1, §2

OXA-48 = OXA-48 (Klebsiella pneumoniae, UniProt Q6XEC0); assay: Steady-state kinetic β-lactamase inhibition, OXA-48; assay type: biochemical; settings: read-out: OXA-48 % inhibition at stated concentration
Chain of OXA-48 (Q6XEC0 23-265 limits assumed): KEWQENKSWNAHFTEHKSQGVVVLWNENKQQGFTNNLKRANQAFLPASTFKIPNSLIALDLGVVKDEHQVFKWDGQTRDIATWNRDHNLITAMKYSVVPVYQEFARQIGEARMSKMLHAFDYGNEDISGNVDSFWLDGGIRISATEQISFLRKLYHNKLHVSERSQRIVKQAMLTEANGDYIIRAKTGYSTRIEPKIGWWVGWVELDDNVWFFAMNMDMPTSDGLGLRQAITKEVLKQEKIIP

CTX-M14 = CTX-M14 (Escherichia coli, UniProt Q9L5C7); assay: Steady-state kinetic nitrocefin hydrolysis inhibition, CTX-M14; assay type: biochemical; settings: for Ki: nitrocefin 50 μM, 1 nM enzyme, Ki=IC50/([S]/Km+1)
Chain of CTX-M14 (Q9L5C7 29-291, species assumed): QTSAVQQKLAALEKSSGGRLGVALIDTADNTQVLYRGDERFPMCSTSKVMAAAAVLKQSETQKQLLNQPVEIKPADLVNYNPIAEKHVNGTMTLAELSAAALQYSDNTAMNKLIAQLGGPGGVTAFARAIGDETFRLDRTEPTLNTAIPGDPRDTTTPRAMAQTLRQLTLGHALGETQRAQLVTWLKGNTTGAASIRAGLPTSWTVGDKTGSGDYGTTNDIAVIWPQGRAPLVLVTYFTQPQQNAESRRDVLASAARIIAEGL
Protocol: as §1, §2

SHV-2 = SHV-2 (Klebsiella pneumoniae, UniProt P0A9Z8); assay: Steady-state kinetic β-lactamase inhibition, SHV-2; assay type: biochemical
Chain of SHV-2 (P0A9Z8 22-286): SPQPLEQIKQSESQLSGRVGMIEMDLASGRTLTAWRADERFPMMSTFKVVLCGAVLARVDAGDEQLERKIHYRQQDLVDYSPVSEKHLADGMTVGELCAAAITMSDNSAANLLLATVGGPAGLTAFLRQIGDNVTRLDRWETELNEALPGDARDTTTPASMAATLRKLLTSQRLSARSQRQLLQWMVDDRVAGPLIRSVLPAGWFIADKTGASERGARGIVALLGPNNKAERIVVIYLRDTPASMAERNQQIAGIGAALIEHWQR

[1] = test system: BL21(DE3) E. coli expressing KPC-2; assay: MIC studies, synergy with imipenem (broth microdilution); assay type: cell-based; settings: Escherichia coli, 24 h, read-out: MIC of imipenem
Protocol: Compounds were tested for synergy with the carbapenem antibiotic, imipenem, against BL21(DE3) E. coli expressing KPC-2. MIC values were determined with the Mueller-Hinton broth microdilution method. To test for inhibitory activity, compounds were dissolved in DMSO and dilutions were carried out using LB broth. Compounds were test at 100 μM with increasing concentrations of imipenem. […] After inoculation, the plates are incubated at 37 C for 24 hours. The MIC of the compounds are then determined visually.

T1 sequence (C7C422 29-270, looked up, species assumed): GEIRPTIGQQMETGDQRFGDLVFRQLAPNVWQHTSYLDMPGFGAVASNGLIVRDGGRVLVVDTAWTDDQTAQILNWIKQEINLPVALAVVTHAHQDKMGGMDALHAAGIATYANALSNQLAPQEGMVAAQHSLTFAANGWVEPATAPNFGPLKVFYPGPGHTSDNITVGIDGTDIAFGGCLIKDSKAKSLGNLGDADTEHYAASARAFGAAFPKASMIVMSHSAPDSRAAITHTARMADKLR

O=C(Nc1nnn[nH]1)C1CN(C(=O)c2cccc(C(F)(F)F)c2)c2ccccc21 (centres unmarked) [Compound 2, N-(1H-tetrazol-5-yl)-1-(3-(trifluoromethyl)benzoyl)indoline-3-carboxamide]
Ki (NDM-1): 958 µM | Ki (KPC-2): 1.2 µM

O=C(Nc1nc(C(=O)Nc2nnn[nH]2)c(-c2ccccc2)s1)c1nccs1 [Compound 6, N-(4-((1H-tetrazol-5-yl)carbamoyl)-5-phenylthiazol-2-yl)thiazole-2-carboxamide]
Ki (KPC-2): 26 µM | inhibition at 4800 µM (OXA-48): 50%

O=C(Nc1nnn[nH]1)[C@@H]1CCCN(S(=O)(=O)c2cccc(C(F)(F)F)c2)C1 [Compound 9, (R)—N-(1H-tetrazol-5-yl)-1-((3-(trifluoromethyl)phenyl)sulfonyl)piperidine-3-carboxamide]
Ki (CTX-M14): 243 µM | Ki (KPC-2): 78 µM | inhibition at 4800 µM (OXA-48): 20%

O=C(N[C@H]1CCCCN(c2nnn[nH]2)C1=O)c1cc(C(F)(F)F)cc2nc[nH]c12.O=CO [Compound 21, (S)—N-(2-oxo-1-(1H-tetrazol-5-yl)azepan-3-yl)-5-(trifluoromethyl)-1H-benzo[d]imidazole-7-carboxamide formate]
Ki (CTX-M14): 236 µM | KPC-2 % inhibition at stated concentration (KPC-2; at 1600 (uM)): 30% at 1600 | Ki (SHV-2): 60 µM

O=C(Nc1nnn[nH]1)C(Sc1ccccc1)c1ccccc1 (centres unmarked) [Compound 22, 2-phenyl-2-(phenylthio)-N-(1H-tetrazol-5-yl)acetamide]
Ki (NDM-1): 58 µM | Ki (KPC-2): 26.5 µM

O=C(Nc1nnn[nH]1)C(Nc1ccccc1)c1ccccc1 (centres unmarked) [Compound 25, 2-phenyl-2-(phenylamino)-N-(1H-tetrazol-5-yl)acetamide]
Ki (NDM-1): 652 µM | Ki (KPC-2): 519 µM | inhibition at 5000 µM (OXA-48): 40%

O=C(Nc1nnn[nH]1)c1cn(S(=O)(=O)c2cccc(C(F)(F)F)c2)c2ccccc12 [Compound 27]
Ki (KPC-2): 300 µM

CC(c1cccc(C(F)(F)F)c1)n1cc(C(=O)Nc2nnn[nH]2)c2ccccc21 (centres unmarked) [Compound 29]
CTX-M14 % inhibition at stated concentration (CTX-M14; at 1900 (uM)): 50% at 1900 | KPC-2 % inhibition at stated concentration (KPC-2; at 1900 (uM)): 50% at 1900

O=C(Nc1nnn[nH]1)c1c[nH]c2ccccc12 [Compound 30]
Ki (NDM-1): 354 µM | Ki (KPC-2): 3000 µM

CC1(C(=O)Nc2nnn[nH]2)CN(C(=O)c2cccc(C(F)(F)F)c2)c2ccccc21 (centres unmarked) [Compound 31]
Ki (NDM-1): 200 µM | Ki (KPC-2): 354 µM

CC(=O)N1CC(C)(C(=O)Nc2nnn[nH]2)c2ccccc21 (centres unmarked) [Compound 32]
Ki (NDM-1): 156 µM | CTX-M14 % inhibition at stated concentration (CTX-M14; at 4800 (uM)): 10% at 4800 | KPC-2 % inhibition at stated concentration (KPC-2; at 4800 (uM)): 40% at 4800 | inhibition at 3900 µM (OXA-48): 16%

CC1(C(=O)Nc2nnn[nH]2)CN(S(C)(=O)=O)c2ccccc21 (centres unmarked) [Compound 33]
Ki (NDM-1): 161 µM | Ki (KPC-2): 2700 µM | inhibition at 3900 µM (OXA-48): 20%

O=C(Nc1nc(C(=O)Nc2nnn[nH]2)c(-c2ccccc2)s1)c1ncc[nH]1.O=CO [Compound 34]
NDM-1 % inhibition at stated concentration (NDM-1; at 1000 (uM)): 20% at 1000 | Ki (KPC-2): 111 µM | inhibition at 1600 µM (OXA-48): 35%

O=C(Nc1nc(C(=O)Nc2nnn[nH]2)c(-c2ccccc2)s1)c1ncco1 [Compound 35]
inhibition at 800 µM (OXA-48): 20%

O=C(Nc1nnn[nH]1)[C@@H]1CCN(C(=O)c2cccc(C(F)(F)F)c2)C1 [Compound 36]
Ki (NDM-1): 48 µM | Ki (CTX-M14): 2980 µM | Ki (KPC-2): 2000 µM

O=C(Nc1nnn[nH]1)[C@@H]1CCN(S(=O)(=O)c2cccc(C(F)(F)F)c2)C1 [Compound 37]
NDM-1 % inhibition at stated concentration (NDM-1; at 1800 (uM)): 30% at 1800 | Ki (CTX-M14): 1000 µM | Ki (KPC-2): 470 µM

O=C(Nc1nnn[nH]1)[C@H]1CCN(C(=O)c2cccc(C(F)(F)F)c2)C1 [Compound 38]
NDM-1 % inhibition at stated concentration (NDM-1; at 3500 (uM)): 40% at 3500 | Ki (CTX-M14): 3000 µM | Ki (KPC-2): 2000 µM

O=C(Nc1nnn[nH]1)[C@H]1CCN(S(=O)(=O)c2cccc(C(F)(F)F)c2)C1 [Compound 39]
NDM-1 % inhibition at stated concentration (NDM-1; at 1800 (uM)): 10% at 1800 | Ki (CTX-M14): 2000 µM | Ki (KPC-2): 1500 µM

O=C(Nc1nnn[nH]1)[C@@H]1CCCN(C(=O)c2cccc(C(F)(F)F)c2)C1 [Compound 40]
NDM-1 % inhibition at stated concentration (NDM-1; at 1000 (uM)): 20% at 1000 | Ki (KPC-2): 110 µM | inhibition at 4800 µM (OXA-48): 35%

O=C(CNc1ccccc1)Nc1nnn[nH]1 [Compound 42]
Ki (KPC-2): 1200 µM

C[C@@H](O)[C@H]1C(=O)N2C(C(=O)O)=C(SCCN=CN)C[C@H]12 [Imipenem, imipenem]
MIC [1]: 2 µg/mL
